In brackets after ≈: the same amount, converted by molar mass. *1 amine or outer side, *2 acyl side, *3 side chain or, on linkers, in order; H or OH if unused. Where a SMILES comes first, the peptide text is derived from it. [ ]: non-standard residue; d: D form. The star is where a group is joined. X13 = C[C@H](CO[C@H](CC1CC2(CCC2)C1)[C@@H](C)C(=O)[*:2])N[*:1]; X19 = CCCC[C@@H](OC[C@@H](C)N[*:1])[C@@H](CC1CC1)C(=O)[*:2]; X2 = CCCCCC[C@@H](OC[C@@H](C)N[*:1])[C@@H](C)C(=O)[*:2]; X23 = CCCCCCCCCC[C@@H](OCCN[*:1])[C@@H](C)C(=O)[*:2]; aIle = CC[C@@H](C)[C@H](N)C(=O)O; aThr = C[C@H](O)[C@H](N)C(=O)O; NMeL = CN[C@@H](CC(C)C)C(=O)O; Chg = N[C@H](C(=O)O)C1CCCCC1; NMeNva = CCC[C@H](NC)C(=O)O; X8 = NC[C@H]1C[C@H](*)C1; Dap = NC[C@H](N)C(=O)O; Propyl(3-NH2) = NCCC*; X3 = NC[C@@H](F)C*; X4 = NCC(F)(F)C*

As usually defined, the MIC is the lowest concentration found to suppress growth. A low value points to inhibition by little substance.

The first experiment deals with Escherichia coli (E. coli) strain CFT073 ATCC 700928. The experiment is classed as cell-based. The conditions noted are these: ATCC 700928, 22 h. In short, it runs like this:
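MICs were read after 22 h at 35 °C, with bacteria added to a final OD600 of 0.0005. Compounds were serially diluted 2-fold over ten concentrations from a top of 64, 4, 0.5 or 0.13 μg/mL (protocols 1–4). Medium was cation-adjusted Mueller Hinton II broth plus 0.002% Tween-80, following CLSI M07-A8.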
On to `CCCCCCC1OC(=O)CNC(=O)[C@H](CNC(=O)Cn2ccnc2)NC(=O)[C@H](CN)NC(=O)[C@H](C2CCCCC2)NC(=O)[C@H](CC(C)C)N(C)C(=O)[C@@H]1C` (stereo in doubt) [Example 160, N-[[(6S,9S,12S,15S,18R,19R)-9-(Aminomethyl)-12-cyclohexyl-19-hexyl-15-isobutyl-16,18-dimethyl-2,5,8,11,14,17-hexaoxo-1-oxa-4,7,10,13,16-pentazacyclononadec-6-yl]methyl]-2-imidazol-1-yl-acetamide], for which the MIC amounted to 71 µM (≈ 55 µg/mL). In turn, `CC(C)C[C@H]1C(=O)N[C@@H](C2CCCCC2)C(=O)N[C@@H](CN)C(=O)N[C@@H]([C@H](C)O)C(=O)NCC(=O)O[C@H](CCCCC(F)CF)[C@@H](C)C(=O)N1C` (stereo partly drawn) [Example 117, (6S,9S,12S,15S,18R,19R)-9-(aminomethyl)-12-cyclohexyl-19-(5,6-difluorohexyl)-15-isobutyl-16,18-dimethyl-6-[(1S)-1-hydroxyethyl]-1-oxa-4,7,10,13,16-pentazacyclononadecane-2,5,8,11,14,17-hexone] displayed a minimal inhibitory concentration (MIC) of 25 µM (≈ 17.9 µg/mL). Turning to `CCCCCCCCCC[C@H]1OC(=O)CNC(=O)[C@H]([C@H](C)O)NC(=O)[C@H](CN)NC(=O)[C@H]([C@H](C)CC)NC(=O)[C@H](CC2CC2)N(C)C(=O)[C@@H]1C` [Example 2, (6S,9S,12S,15S,18R,19R)-9-(aminomethyl)-12-((R)-sec-butyl)-15-(cyclopropylmethyl)-19-decyl-6-((S)-1-hydroxyethyl)-16,18-dimethyl-1-oxa-4,7,10,13,16-pentaazacyclononadecane-2,5,8,11,14,17-hexaone], the MIC worked out at 3.1 µM (≈ 2.2 µg/mL). Still for that read-out and setting: for `CCCCCC[C@H]1OC(=O)CNC(=O)[C@H](CNC(=O)CN(C)C)NC(=O)[C@H](CN)NC(=O)[C@H](C2CCCCC2)NC(=O)[C@H](CC(C)C)N(C)C(=O)[C@@H]1C` [Example 143, 2-(dimethylamino)-N-[[(6S,9S,12S,15S,18R,19R)-9-(aminomethyl)-12-cyclohexyl-19-hexyl-15-isobutyl-16,18-dimethyl-2,5,8,11,14,17-hexaoxo-1-oxa-4,7,10,13,16-pentazacyclononadec-6-yl]methyl]acetamide] the value was 25 µM (≈ 18.8 µg/mL); for `CCCCCCCCCC[C@H]1OC(=O)CNC(=O)[C@H](CCN)NC(=O)[C@H](CO)NC(=O)[C@H]([C@@H](C)CC)NC(=O)[C@H](CC(C)C)N(C)C(=O)[C@@H]1C` [Example 20, (6S,9S,12S,15S,18R,19R)-6-(2-aminoethyl)-19-decyl-9-(hydroxymethyl)-15-isobutyl-16,18-dimethyl-12-[(1S)-1-methylpropyl]-1-oxa-4,7,10,13,16-pentazacyclononadecane-2,5,8,11,14,17-hexone], 50 µM (≈ 35.5 µg/mL). `CCCCCC[C@H]1OC[C@@H](C)NC(=O)[C@H](COCC(F)(F)CN)NC(=O)[C@H](CN)NC(=O)[C@H](C2CCCCC2)NC(=O)[C@H](CC(C)C)N(C)C(=O)[C@@H]1C` [Example 81, (3R,6S,9S,12S,15S,18R,19R)-6-((3-Amino-2,2-difluoropropoxy)methyl)-9-(aminomethyl)-12-cyclohexyl-19-hexyl-15-isobutyl-3,16,18-trimethyl-1-oxa-4,7,10,13,16-pentaazacyclononadecane-5,8,11,14,17-pentaone] (cyclo([Chg][Dap]S(X4)[X2][NMeL])) came in with an MIC of 12 µM (≈ 9.12 µg/mL).

`CCCC[C@H]1OC[C@@H](C)NC(=O)[C@H]([C@H](C)O)NC(=O)[C@H](CN)NC(=O)[C@H](C2CCCCC2)NC(=O)[C@H](CCC)N(C)C(=O)[C@@H]1CC1CC1` [Example 147, (3R,6S,9S,12S,15S,18R,19R)-9-(Aminomethyl)-19-butyl-12-cyclohexyl-18-(cyclopropylmethyl)-6-((S)-1-hydroxyethyl)-3,16-dimethyl-15-propyl-1-oxa-4,7,10,13,16-pentaazacyclononadecane-5,8,11,14,17-pentaone] (cyclo([Chg][Dap][aThr][X19][NMeNva])) yielded an MIC of 12 µM (≈ 8.15 µg/mL).

In turn, `CCCCCCCCCC[C@H]1OC(=O)CNC(=O)[C@H](CCO)NC(=O)[C@H](CO)NC(=O)[C@H]([C@@H](C)CC)NC(=O)[C@H](CC(C)C)N(C)C(=O)[C@@H]1C` [Example 27, (6S,9S,12S,15S,18R,19R)-19-decyl-6-(2-hydroxyethyl)-9-(hydroxymethyl)-15-isobutyl-16,18-dimethyl-12-[(1S)-1-methylpropyl]-1-oxa-4,7,10,13,16-pentazacyclononadecane-2,5,8,11,14,17-hexone] returned an MIC of 13 µM (≈ 9.26 µg/mL).

Compound `CCCCCCCCCC[C@H]1OCCNC(=O)[C@H]([C@H](C)O)NC(=O)[C@H](CN)NC(=O)[C@H]([C@H](C)CC)NC(=O)[C@H](CC(C)C)N(C)C(=O)[C@@H]1C` [Example 47, (6S,9S,12S,15S,18R,19R)-9-(aminomethyl)-19-decyl-6-[(1S)-1-hydroxyethyl]-15-isobutyl-16,18-dimethyl-12-[(1R)-1-methylpropyl]-1-oxa-4,7,10,13,16-pentazacyclononadecane-5,8,11,14,17-pentone] (cyclo([Dap][aThr][X23][NMeL][aIle])) registered an MIC of 3.1 µM (≈ 2.16 µg/mL). Still for that read-out and setting: next, `CCCCCC[C@H]1OC[C@@H](C)NC(=O)[C@H]([C@H](C)OCCCN)NC(=O)[C@H](CN)NC(=O)[C@H](C2CCCCC2)NC(=O)[C@H](CC(C)C)N(C)C(=O)[C@@H]1C` [Example 70, (3R,6S,9S,12S,15S,18R,19R)-9-(Aminomethyl)-6-((S)-1-(3-aminopropoxy)ethyl)-12-cyclohexyl-19-hexyl-15-isobutyl-3,16,18-trimethyl-1-oxa-4,7,10,13,16-pentaazacyclononadecane-5,8,11,14,17-pentaone] (cyclo([Chg][Dap][aThr](Propyl(3-NH2))[X2][NMeL])): 15 µM (≈ 11.1 µg/mL); `CCCC[C@H]1OC(=O)CNC(=O)[C@H]([C@H](C)O)NC(=O)[C@H](CN)NC(=O)[C@H](C2CCCCC2)NC(=O)[C@H](CC(C)C)N(C)C(=O)[C@@H]1Cc1ccc(C)cc1` [Example 109, (6S,9S,12S,15S,18R,19R)-9-(aminomethyl)-19-butyl-12-cyclohexyl-15-isobutyl-16-methyl-18-(p-tolylmethyl)-6-[(1S)-1-hydroxyethyl]-1-oxa-4,7,10,13,16-pentazacyclononadecane-2,5,8,11,14,17-hexone]: 25 µM (≈ 18.6 µg/mL); `CCC[C@H]1C(=O)N[C@@H](C2CCCCCC2)C(=O)N[C@@H](CN)C(=O)N[C@@H]([C@H](C)O)C(=O)NCC(=O)O[C@H](CCC2CC3CCC2C3)[C@@H](C)C(=O)N1C` (stereo partly drawn) [Example 129, (6S,9S,12S,15S,18R,19R)-9-(aminomethyl)-12-cycloheptyl-16,18-dimethyl-19-(2-norbornan-2-ylethyl)-15-propyl-6-[(1S)-1-hydroxyethyl]-1-oxa-4,7,10,13,16-pentazacyclononadecane-2,5,8,11,14,17-hexone]: 0.66 µM (≈ 0.474 µg/mL).

In turn, `CCC[C@H]1C(=O)N[C@@H](C2CCCCC2)C(=O)N[C@@H](CN)C(=O)N[C@@H]([C@H](C)O)C(=O)N[C@H](C)CO[C@H](CC2CC3(CCC3)C2)[C@@H](C)C(=O)N1C` [Example 156, (3R,6S,9S,12S,15S,18R,19R)-9-(Aminomethyl)-12-cyclohexyl-6-((S)-1-hydroxyethyl)-3,16,18-trimethyl-15-propyl-19-(spiro[3.3]heptan-2-ylmethyl)-1-oxa-4,7,10,13,16-pcntaazacyclononadecane-5,8,11,14,17-pentaone] (cyclo([Chg][Dap][aThr][X13][NMeNva])) came in with an MIC of 2.2 µM (≈ 1.52 µg/mL).

`CCC[C@H]1C(=O)N[C@@H](C2CCCCCC2)C(=O)N[C@@H](CN)C(=O)N[C@@H](COC2CC3(CC(N)C3)C2)C(=O)N[C@H](C)CO[C@H](CC2CC3(CCC3)C2)[C@@H](C)C(=O)N1C` (single isomer, unassigned; stereoisomer 1) [Example 166]: the MIC turned out to be 1.1 µM (≈ 0.88 µg/mL). Still for that read-out and setting: for `CCCCCC[C@H]1OC[C@@H](C)NC(=O)[C@H](CO[C@H]2C[C@H](CN)C2)NC(=O)[C@H](CN)NC(=O)[C@H](C2CCCCC2)NC(=O)[C@H](CC(C)C)N(C)C(=O)[C@@H]1C` [Example 149, (3R,6S,9S,12S,15S,18R,19R)-9-(Aminomethyl)-6-(((1r,3,S)-3-(aminomethyl)cyclobutoxy)methyl)-12-cyclohexyl-19-hexyl-15-isobutyl-3,16,18-trimethyl-1-oxa-4,7,10,13,16-pentaazacyclononadecane-5,8,11,14,17-pentaone] (cyclo([Chg][Dap]S(X8)[X2][NMeL])) the value was 8.8 µM (≈ 6.6 µg/mL). On the same count and under the same terms, next, `CCCCCC[C@H]1OC(=O)CNC(=O)[C@H]([C@H](C)O)NC(=O)[C@H](CN)NC(=O)[C@H](C2CCCCC2)NC(=O)[C@H](CC(C)C)N(C)C(=O)[C@@H]1CC1CCCCC1` [Example 135, (6S,9S,12S,15S,18R,19R)-9-(aminomethyl)-12-cyclohexyl-18-(cyclohexylmethyl)-19-hexyl-15-isobutyl-16-methyl-6-[(1S)-1-hydroxyethyl]-1-oxa-4,7,10,13,16-pentazacyclononadecane-2,5,8,11,14,17-hexone]: 3.7 µM (≈ 2.82 µg/mL).

The same experiment, now with this note: E. coli CFT073 ATCC 700928; Mueller Hinton II cation adjusted Broth with 0.002% v/v Tween-80; 35° C. for 22 hours; lowest concentration that completely prevented bacterial growth.
`CCCCCC[C@H]1OC[C@@H](C)NC(=O)[C@H](COC[C@H](F)CN)NC(=O)[C@H](CN)NC(=O)[C@H](C2CCCCC2)NC(=O)[C@H](CC(C)C)N(C)C(=O)[C@@H]1C` [Example 154, (3R,6S,9S,12S,15S,18R,19R)-6-(((R)-3-Amino-2-fluoropropoxy)methyl)-9-(aminomethyl)-12-cyclohexyl-19-hexyl-15-isobutyl-3,16,18-trimethyl-1-oxa-4,7,10,13,16-pentaazacyclononadecane-5,8,11,14,17-pentaone] (cyclo([Chg][Dap]S(X3)[X2][NMeL])) registered a minimal inhibitory concentration (MIC) of 12 µM (≈ 8.9 µg/mL).

For the compound `C=CCCCC[C@H]1OC(=O)CNC(=O)[C@H]([C@H](C)O)NC(=O)[C@H](CN)NC(=O)[C@H](C2CCCCC2)NC(=O)[C@H](CC(C)C)N(C)C(=O)[C@@H]1C` [Example 105, (6S,9S,12S,15S,18R,19R)-9-(aminomethyl)-12-cyclohexyl-19-hex-5-enyl-15-isobutyl-16,18-dimethyl-6-[(1S)-1-hydroxyethyl]-1-oxa-4,7,10,13,16-pentazacyclononadecane-2,5,8,11,14,17-hexone], the MIC came out at 5.2 µM (≈ 3.53 µg/mL).

Source of the values: US11279735B2, “Cyclic peptide antibiotics” (priority 2017, dated 2022).
